Results from patent US7666414B2, “Methods for treating prostate cancer using modified antibodies to prostate-specific membrane antigen” (Cornell Research Foundation, Inc., priority 2001, dated 2010).
Read-outs that look alike come from different tables or passages of the source.

Key:
[1] = tested on: prostate tissue; test: Immunohistochemistry of DOTA conjugated deJ591
Experimental: Immunohistochemistry was performed on the DOTA conjugated, partially purified, bulk intermediate deJ591.

[2] = tested on: LNCaP cells; test: Immunoreactivity by the method of Lindmo; parameters: species or system human; details: 111In labeled, binding extrapolated to infinite antigen excess
Experimental: The solutions were incubated at 4° C. for 60 minutes prior to being isolated (by centrifugation) and washed with ice cold PBS. The membranes were then counted in a gamma counter with standards representing the total radioactivity added. The data was plotted using the Lindmo method as the reciprocal of the substrate concentration α-axis) against the reciprocal of the fraction bound (y-axis). The data was then fitted according to a least squares linear regression method (Sigma Plot) and the y intercept taken as the reciprocal of the immunoreactivity. A similar method using membranes derived from LNCaP cells, and subsequent centrifugation isolation of the membranes, gave similar results. The results gave an average immunoreactivity of 72% (see Table 11).
Briefly five test solutions were prepared (in duplicate) containing 10,000 cpm of ^111Indium labeled-DOTA-deJ591 and various amounts of LNCaP cells or cell membranes, in a total test volume of 250 μL of 0.2% BSA 10 mM HEPES. The solutions were incubated at 4° C. for 60 minutes prior to being isolated (by centrifugation) and washed with ice cold PBS. The membranes were then counted in a gamma counter with standards representing the total radioactivity added. The data was plotted using the Lindmo method as the reciprocal of the substrate concentration α-axis) against the reciprocal of the fraction bound (y-axis). The data was then fitted according to a least squares linear regression method (Sigma Plot) and the y intercept used as the reciprocal of the immunoreactivity. The target for immunoreactivity was not less than 75%.

[3] = tested on: hormone refractory prostate cancer; format: in vivo, human
Excerpt: All patients had rising PSA levels on three consecutive measurements.

[4] = tested on: recurrent, progressing prostate cancer; test: Phase I trial of 111In-DOTA-deJ591, four weekly doses; format: in vivo, human
Experimental: Patients with recurrent, progressing prostate cancer received four weekly doses of ^111In-DOTA-deJ591. Doses were escalated in cohorts of three patients and ranged from 62.5-500 mg/m2 (total). […] After the first dose, patients were imaged on the day of injection (day 0) and days 1, 2, 4 and 7.
Serum PK, immune reaction and toxicity were evaluated after each dose for a minimum of 12 weeks.

[5] = tested on: vascular endothelium of solid tumors; test: Phase I trial of 111In-DOTA-deJ591 in refractory solid tumor malignancies; format: in vivo; details: for Plasma clearance (T1/2): human
Excerpt: Eligible patients were those with refractory solid tumor malignancies whose tumor types are known to express PSMA on the neovasculature.
Patients the participated in the study included eight renal cell cancer patients, four bladder cancer patients, two colon cancer patients, and one pancreas cancer patient.

[6] = tested on: PSMA-positive human LNCaP tumors; parameters: species or system nude mice; details: mouse, in vivo
Experimental: (§1) Prior to use, the cells were trypsinized, counted and suspended in Matrigel (Collaborative Biomedical Products, Bedford, Mass.). Nu/Nu Balb C mice 8-10 weeks of age were inoculated, in the right and left flanks, with a suspension of 5×10^6 LNCaP cells in Matrigel (BD Biosciences, Bedford Mass.). After a period of 14-18 days, tumors (100-300 mg) had developed. The PSMA-negative DU145 and PC3 cells were implanted in nude mice in an identical manner.
(§2) The PSMA-positive and PSMA-negative tumor bearing mice were injected, via the tail vein, with 80 KBq of the iodinated MAb (400 MBq/mg) in 200 μL of PBS (pH 7.4, 0.2% BSA). Groups of animals (3-8/group) were sacrificed after 2, 4 or 6 days. The major organs and tumors were recovered. The tissue samples were weighed and counted, with appropriate standards in an automatic NaI(Tl) counter. These measured relative activity data (cpm) were background corrected and expressed as a percentage of the injected dose per gram (% ID/g). […] J415, J591 and 7E11 were labeled with ^111In (100 MBq/mg). 80 KBq of the ^111In labeled MAbs were injected in groups of animals. The % ID/g in various organs and tumor tissues was determined at 2-6 days post injection in a similar way as described for ^131I labeled MAbs.
For the imaging studies, animals were injected with 2 MBq of ^111In-DOTA-J591. […]

[7] = tested on: prostate cancer; details: in vivo
Experimental: A single patient was treated with mAb deJ591. This patient had bulky, poorly differentiated prostate cancer and had failed multiple courses of external beam radiotherapy as well as multiple forms of hormonal and non-hormonal chemotherapy. […] Four doses (#1, 3, 6 and 11) were trace-radiolabeled with either ^131Iodine or ^111Indium for pharmacokinetic determinations and biodistribution. The mean effective serum residence time of ^131I-deJ591 ranged from 31.9 to 51.3 hours, depending on the dose. Tumor localization to known tumor sites was excellent after each of the radiolabeled doses over the five month period. Dose twelve was radiolabeled with a therapeutic quantity of ^90Yttrium (19mCi) calculated to deliver less than a 150 rad dose to the blood. This dose was determined in consultation with the FDA and took into account prior radiotherapy delivered by external beam and by 131 Iodine. […] The patient's platelet count dropped to 64,000 (normal: 150,000-300,000) at five weeks post ^90Y-DOTA-deJ591 administration (as an anticipated result of radiation to the bone marrow) prior to spontaneously returning to normal levels. […] The patient experienced no side effects. The patient's PSA declined from 63 at the time of deJ591-DOTA-9Y administration to 36. […] This patient succumbed to their metastatic prostate cancer ten and one-half months after initiating treatment with ^90Y-DOTA-deJ591.

[8] = tested on: PSMA-positive human LNCaP tumors; test: Biodistribution of 131I labeled MAbs in nude mice bearing LNCaP tumors; details: mouse, in vivo
Experimental: as §1, §2

[9] = tested on: hormone-refractory prostate cancer metastases; test: Nuclear imaging with 111In or 177Lu labeled deJ591 versus standard imaging; format: in vivo, human
Experimental: The antibody scans were compared to standard imaging studies (bone, CT or MR scans) obtained on each patient to assess the underlying sensitivity, specificity, and accuracy of deJ591 targeting to metastatic sites. Bony and soft tissue metastases were evaluated independently.

[10] = tested on: recurrent prostate cancer; test: Phase II trial of deJ591 with low-dose subcutaneous IL-2; format: in vivo, human; details: in combination with daily low-dose subcutaneous IL-2; six patients entered
Experimental: Patients receive daily low-dose subcutaneous rIL-2 (1.2×10^6 IU/m^2/day) on day 1 through day 56. […] IL-2 administration is continued during this period another two weeks afterwards. This 8-week regimen constitutes one cycle of therapy. Patients are evaluated for response at the end of one cycle. Patients who have responded to therapy or have stable disease are eligible for additional cycles of therapy. Additional cycles will be initiated when there is at least two consecutive rises in PSA at least 2 weeks apart. […] The dose of antibody will be adjusted based on additional data analysis of patients treated in this manner.

[11] = tested on: PSMA-positive CWR22 xenografts; test: Efficacy in PSMA-positive CWR22 xenografts; format: in vivo, C.B-17 scid mice
Experimental: (§3) Experiment: Male SCID mice were implanted by serial passage of CWR22 prostate tumor xenograft. […] All treatments were given intravenously. Tumor growth and animal health were continually monitored throughout the study with tumor growth measured every 3 days.
Experiment: Male C.B-17 SCID mice bearing CWR22 xenografts approximately 200 mm^3 in size received IV injections (200 μL constant volume) of the test articles according to the dose and schedule as shown in Table 22.
Male C.B-17 scid mice bearing CWR22 xenografts approximately 200 mm^3 in size received IV injections (200 μL constant volume) of the test articles according to the dose and schedule shown in the Table 23.
The objective of this study was to determine how much the dosing interval could be increased at this dosage before a loss of efficacy in terms of TGD would be observed. […] The growth delays for the other schedules were: q7d, 53.0 days; q21d, 48.0 days; and q28d, 26.9 days. Similar to other studies using the CWR22 xenograft model, no curative responses were observed, with all tumors eventually resuming growth (FIG. 18).
as §3, with “intravenously and on a schedule of every three days for 5 doses.” for “intravenously.”
as §3, with “intravenously and on a schedule of every seven days for 5 doses.” for “intravenously.”

[12] = biological target: prostate specific membrane antigen (Homo sapiens, UniProt Q04609); test: Competitive binding sites on PSMA; details: relative to J591, J533, E99 site
Sequence of prostate specific membrane antigen (Q04609 whole entry): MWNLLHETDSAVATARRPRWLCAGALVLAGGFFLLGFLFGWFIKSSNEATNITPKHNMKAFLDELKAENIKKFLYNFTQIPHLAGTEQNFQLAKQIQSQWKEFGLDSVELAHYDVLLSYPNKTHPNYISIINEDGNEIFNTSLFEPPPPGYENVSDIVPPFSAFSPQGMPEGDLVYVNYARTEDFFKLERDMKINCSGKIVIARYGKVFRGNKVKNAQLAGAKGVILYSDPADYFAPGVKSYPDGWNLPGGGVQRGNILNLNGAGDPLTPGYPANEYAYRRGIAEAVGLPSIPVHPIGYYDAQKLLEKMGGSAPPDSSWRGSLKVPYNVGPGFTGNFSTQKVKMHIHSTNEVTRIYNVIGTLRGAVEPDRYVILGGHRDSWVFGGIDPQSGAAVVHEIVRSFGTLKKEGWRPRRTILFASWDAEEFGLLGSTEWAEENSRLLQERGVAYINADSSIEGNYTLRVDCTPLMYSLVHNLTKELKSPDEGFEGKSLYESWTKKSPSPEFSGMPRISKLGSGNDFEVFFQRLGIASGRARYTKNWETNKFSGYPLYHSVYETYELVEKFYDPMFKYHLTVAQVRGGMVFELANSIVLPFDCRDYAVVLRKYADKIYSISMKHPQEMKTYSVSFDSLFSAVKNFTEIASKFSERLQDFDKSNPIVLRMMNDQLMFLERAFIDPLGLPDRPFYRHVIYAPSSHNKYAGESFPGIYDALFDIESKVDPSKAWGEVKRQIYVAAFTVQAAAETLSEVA
Excerpt: To kill or ablate normal, benign hyperplastic, and cancerous prostate epithelial cells, a first antibody, e.g., a modified antibody, can be conjugated with a prodrug which is activated only when in close proximity with a prodrug activator. The prodrug activator is conjugated with a second antibody, e.g., a second modified antibody according to the present invention, preferably one that binds to a non-competing site on the prostate specific membrane antigen molecule. Whether two modified antibodies bind to competing or non-competing binding sites can be determined by conventional competitive binding assays. […] Monoclonal antibody J415, on the other hand, binds to a binding site that is non-competing with the site to which J591, J533, and E99 bind. Thus, for example, the first modified antibody can be one of J591, J533, and E99, and the second modified antibody can be J415. Alternatively, the first modified antibody can be J415, and the second modified antibody can be one of J591, J533, and E99. Drug-prodrug pairs suitable for use in the practice of the present invention are described in Blakely et al., “ZD2767, an Improved System for Antibody-directed Enzyme Prodrug Therapy That Results in Tumor Regressions in Colorectal Tumor Xenografts,” (1996) Cancer Research, 56:3287-3292, which is hereby incorporated by reference.

[13] = four weekly doses, 62.5-500 mg/m2 total

DOTA conjugated deJ591
Immunohistochemistry specificity and reactivity [1]: specific to prostate tissue and the reactivity was equivalent to the naked deJ591 antibody
Immunoreactivity [2]: 95%
Immunoreactivity ([2]; listed as Lot 243101): 95%
Immunoreactivity ([2]; listed as Lot BIOV983.2-2): 72%

^111In-DOTA-deJ591
false negative imaging in patients who had imagable disease ([3]; four of twenty-two): 18%
Plasma clearance (T1/2) ([3]; human, in vivo, 20 mg): 34 ± 5 h
tumor targeting in patients who had imagable disease ([3]; sixteen of twenty-two, 20 mg, 185 MBq): 72.7%
immune reaction to the antibody [4, 13]: None of the patients developed an immune reaction to the antibody
toxicity or side effects [4, 13]: Neither this latter patient nor the remaining thirteen patients experienced any toxicity or side effects
mAb targeting to bony sites ([4]; ten patients with positive bone scans): all ten demonstrated excellent mAb targeting to bony sites
mAb targeting to soft tissue disease ([4]; three patients with soft tissue disease on CT): two demonstrated mAb targeting to these sites
tumor targeting ([5]; 7 renal cell, 2 bladder, 1 colon cancer): ten of the fifteen patients
decline in CEA ([5]; a colon cancer patient): 50%
false negative imaging ([5]; in vivo): five of the fifteen patients
objective responses ([5]; in vivo): No objective responses occurred
Immunoreactivity [2]: 72%

deJ591: deimmunized form of murine anti-PSMA antibody J591, human IgG1/kappa constant regions, NS0 cell line ATCC PTA-3709
blood activity [6]: 2.52±0.16 % ID/g
Liver uptake ([5]; 5 mg): 28%+/−14
Liver uptake ([5]; 10 mg): 17%+/−7
Liver uptake ([5]; 20 mg): 13%+/−5
Plasma clearance (T1/2) ([5]; in vivo, 5 mg): 21 ± 11 h
Plasma clearance (T1/2) ([5]; in vivo, 10 mg): 24 ± 6 h
Plasma clearance (T1/2) ([5]; in vivo, 20 mg): 37 ± 8 h
human anti-deimmunized antibody (immune) response [7]: No detectable human anti-deimmunized antibody (immune) response developed
blood activity [8]: significantly lower compared to that of 7E11
tumor uptake [8]: 8.55±1.29 % injected dose/gram
patients with soft tissue masses accurately targeted ([9]; eight out of nine): 89%
patients without documented soft tissue metastases with negative mAb scans ([9]; fifteen patients): 100%
specificity, negative bone scans negative on the deJ591 scan ([9]; seven patients): 100%
concordance between standard imaging and mAb scans ([9]; soft tissue and bony metastases): 91%
patients with bone metastases on bone scan accurately targeted ([9]; twelve of fifteen): 80%
Toxicities [10]: expected and minor
Tumor Growth Delay ([11]; Comparison II, 12.96 mg/kg, q3dX5): 1.9 days
effect on CWR22 xenograft tumor growth ([11]; every three days for 5 doses, IV, equimolar to 14.5 mg/kg deJ591-DM1): no significant effect

J591: murine monoclonal antibody to the extracellular domain of human PSMA, hybridoma ATCC HB-12126
binding site on the prostate specific membrane antigen molecule [12]: bind to competing binding sites
